Tests used:
T-24 = assay: Cytotoxicity in human T24 cells assessed as reduction in cell viability incubated for 48 hrs by MTT assay; format: functional, cell-based; details: T-24, 48 h
HUVEC = assay: Cytotoxicity in HUVEC cells assessed as reduction in cell viability incubated for 48 hrs by MTT assay; format: cell-based; details: Homo sapiens
[1] = Cytotoxicity in human SPCA2 cells assessed as reduction in cell viability incubated for 48 hrs by MTT assay; format: functional, cell-based; details: SPCA2, 48 h
A549 [2] = assay: Cytotoxicity in human A549 cells assessed as reduction in cell viability incubated for 48 hrs by MTT assay; format: functional, cell-based; details: A549, 48 h
RAW264.7 = assay: Anti-inflammatory activity in mouse RAW264.7 cells assessed as inhibition of nitric oxide production; format: functional, cell-based
MCF7 = assay: Cytotoxicity in human MCF7 cells assessed as reduction in cell viability incubated for 24 hrs by MTT assay; format: functional, cell-based; details: MCF7, 24 h
A549 [3] = assay: Cytotoxicity in human A549 cells assessed as reduction in cell viability incubated for 24 hrs by MTT assay; format: functional, cell-based; details: A549, 24 h
HeLa [4] = assay: Cytotoxicity in human HeLa cells assessed as reduction in cell viability incubated for 48 hrs by MTT assay; format: functional, cell-based
SGC-7901 = assay: Cytotoxicity in human SGC7901 cells assessed as reduction in cell viability incubated for 48 hrs by MTT assay; format: functional, cell-based; details: SGC-7901, 48 h
HepG2 [5] = assay: Cytotoxicity in human HepG2 cells assessed as reduction in cell viability incubated for 48 hrs by MTT assay; format: functional, cell-based; details: HepG2, 48 h
HepG2 [6] = assay: Cytotoxicity in human HepG2 cells assessed as reduction in cell viability incubated for 24 hrs by MTT assay; format: functional, cell-based; details: HepG2, 24 h
NCI-H446 = assay: Cytotoxicity in human NCI-H446 cells assessed as reduction in cell viability incubated for 24 hrs by MTT assay; format: functional, cell-based; details: NCI-H446, 24 h
A-375 = assay: Cytotoxicity in human A375 cells assessed as reduction in cell viability incubated for 24 hrs by MTT assay; format: functional, cell-based; details: A-375, 24 h
[7] = Cytotoxicity in human HELF cells assessed as reduction in cell viability incubated for 24 hrs by MTT assay; format: cell-based
HeLa [8] = assay: Cytotoxicity in human HeLa cells assessed as reduction in cell viability incubated for 24 hrs by MTT assay; format: functional, cell-based
AGS = assay: Cytotoxicity in human AGS cells assessed as reduction in cell viability incubated for 24 hrs by MTT assay; format: functional, cell-based
HeLa [9] = assay: Cytotoxicity in human HeLa cells assessed as reduction in cell viability incubated for 72 hrs by CCK8 assay; format: functional, cell-based
H4 = assay: Cytotoxicity in human H4 cells assessed as reduction in cell viability incubated for 72 hrs by MTT assay; format: functional, cell-based; details: H4, 72 h
Bel-7402 = assay: Cytotoxicity in human Bel7402 cells assessed as reduction in cell viability incubated for 72 hrs by MTT assay; format: functional, cell-based; details: Bel-7402, 72 h

## CCOP(=O)(OCC)C(NC(=O)[C@]12CC[C@@H](C)[C@H](C)[C@H]1C1=CC[C@@H]3[C@@]4(C)C[C@@H](OC(C)=O)[C@H](OC(C)=O)[C@@](C)(COC(C)=O)[C@@H]4CC[C@@]3(C)[C@]1(C)CC2)c1ccc(Cl)cc1 (some centres undefined)
T-24
  IC50: 8.93 µM
HUVEC
  IC50: > 100 µM
[1]
  IC50: 16.1 µM
A549 [2]
  IC50: 15.7 µM

## C[C@H]1[C@H](C)CC[C@]2(C#N)CC[C@]3(C)C(=CC[C@@H]4[C@@]5(C)C=C(C#N)C(=O)C(C)(C)[C@@H]5CC[C@]43C)[C@H]12
RAW264.7
  IC50: 1 to 7 µM

## CCOP(=O)(OCC)C(NC(=O)[C@]12CC[C@@H](C)[C@H](C)[C@H]1C1=CC[C@@H]3[C@@]4(C)C[C@@H](OC(C)=O)[C@H](OC(C)=O)[C@@](C)(COC(C)=O)[C@@H]4CC[C@@]3(C)[C@]1(C)CC2)c1ccc2ccccc2c1 (some centres undefined)
T-24
  IC50: 49.1 µM
HUVEC
  IC50: > 100 µM
[1]
  IC50: 48.7 µM
A549 [2]
  IC50: 46.3 µM

## C[C@@H]1O[C@@H](O[C@H]2CC[C@@]3(C)[C@@H](CC[C@]4(C)[C@@H]3CC=C3[C@H]5CC(C)(C)CC[C@]5(C(=O)O)CC[C@]34C)[C@]2(C)CO)[C@H](O)[C@H](O)[C@H]1O[C@@H]1OC[C@H](O)[C@H](O)[C@H]1O
MCF7
  IC50: 42.1 µM
A549 [3]
  IC50: 17.3 µM

## CC1(C)CC[C@]2(C(=O)O)CC[C@]3(C)C(=CC[C@@H]4[C@@]5(C)CC[C@H](O[C@@H]6OC[C@H](O[C@@H]7OC[C@H](O)[C@H](O)[C@H]7O)[C@H](O[C@H]7O[C@H](CO)[C@@H](O)[C@H](O)[C@@H]7O)[C@H]6O)[C@@](C)(CO)[C@@H]5CC[C@]43C)[C@H]2C1
MCF7
  IC50: > 50 µM
A549 [3]
  IC50: 17.9 µM

## C[C@@H]1CC[C@]2(C(=O)OCC(=O)N/N=C/c3ccc(Cl)cc3)CC[C@]3(C)C(=CC(=O)[C@@H]4[C@@]5(C)CC[C@H](O)[C@](C)(CO)[C@@H]5CC[C@]43C)[C@@H]2[C@]1(C)O
HeLa [4]
  IC50: > 100 µM
SGC-7901
  IC50: > 100 µM
HepG2 [5]
  IC50: > 100 µM

## CCOP(=O)(OCC)C(NC(=O)[C@]12CC[C@@H](C)[C@H](C)[C@H]1C1=CC[C@@H]3[C@@]4(C)C[C@@H](OC(C)=O)[C@H](OC(C)=O)[C@@](C)(COC(C)=O)[C@@H]4CC[C@@]3(C)[C@]1(C)CC2)c1ccccc1Cl (some centres undefined)
T-24
  IC50: 6.59 µM
HUVEC
  IC50: > 100 µM
[1]
  IC50: 15 µM
A549 [2]
  IC50: 14.9 µM

## C[C@@H]1CC[C@]2(C(=O)NC(Cc3c[nH]c4ccccc34)C(=O)O)CC[C@]3(C)C(=CC(=O)[C@@H]4[C@@]5(C)CC[C@H](O)[C@](C)(CO)[C@@H]5CC[C@]43C)[C@@H]2[C@]1(C)O (some centres undefined)
HepG2 [6]
  IC50: 6.11 µM
NCI-H446
  IC50: 11.3 µM
A-375
  IC50: 8.03 µM

## C[C@@H]1CC[C@]2(C(=O)OCC(=O)N/N=C/c3ccc([N+](=O)[O-])cc3)CC[C@]3(C)C(=CC(=O)[C@@H]4[C@@]5(C)CC[C@H](O)[C@](C)(CO)[C@@H]5CC[C@]43C)[C@@H]2[C@]1(C)O
HeLa [4]
  IC50: 18.8 µM
SGC-7901
  IC50: 15.4 µM
HepG2 [5]
  IC50: 8.74 µM

## COC(=O)[C@]12CC[C@@H](C)[C@H](C)[C@H]1C1=CC[C@@H]3[C@@]4(C)C=C(C#N)C(=O)C(C)(C)[C@@H]4CC[C@@]3(C)[C@]1(C)CC2
RAW264.7
  IC50: 17 µM

## COC(=O)[C@]12CCC(C)(C)C[C@H]1[C@H]1C(=O)C=C3[C@@]4(C)C=C(C#N)C(=O)C(C)(C)[C@@H]4CC[C@@]3(C)[C@]1(C)CC2 [BARDOXOLONE METHYL]
RAW264.7
  IC50: 4 µM

## C[C@H]1[C@H](C)CC[C@]2(C(=O)NCCN)CC[C@]3(C)C(=CC[C@@H]4[C@@]5(C)CC[C@H](O)C(C)(C)[C@@H]5CC[C@]43C)[C@H]12
[7]
  IC50: 15.4 µM
HepG2 [6]
  IC50: 13.9 µM
HeLa [8]
  IC50: 14.6 µM
AGS
  IC50: 17.7 µM

## C[C@@H]1O[C@@H](O[C@H]2CC[C@@]3(C)[C@@H](CC[C@]4(C)[C@@H]3CC=C3[C@H]5CC(C)(C)CC[C@]5(C(=O)O)CC[C@]34C)[C@]2(C)CO)[C@H](O)[C@H](O)[C@H]1O[C@@H]1O[C@H](CO)[C@@H](O)[C@H](O)[C@H]1O
MCF7
  IC50: 41.3 µM
A549 [3]
  IC50: 17.8 µM

## CC1(C)CC[C@]2(C(=O)n3ccnc3)CC[C@]3(C)[C@H](C(=O)C=C4[C@@]5(C)C=C(C#N)C(=O)C(C)(C)[C@@H]5CC[C@]43C)[C@@H]2C1
RAW264.7
  IC50: 1 µM

## COC(=O)C(CO)NC(=O)[C@]12CC[C@@H](C)[C@@](C)(O)[C@H]1C1=CC(=O)[C@@H]3[C@@]4(C)CC[C@H](OC(C)=O)[C@](C)(COC(C)=O)[C@@H]4CC[C@@]3(C)[C@]1(C)CC2 (some centres undefined)
HepG2 [6]
  IC50: 3.41 µM
NCI-H446
  IC50: 3.84 µM
A-375
  IC50: 5.99 µM

## CC(=O)O[C@H]1CC[C@]2(C)[C@H]3CC=C4[C@@H]5[C@@H](C)[C@H](C)CC[C@]5(C(=O)NCCCCCCN)CC[C@@]4(C)[C@]3(C)CC[C@H]2C1(C)C
[7]
  IC50: 14.9 µM
HepG2 [6]
  IC50: 7.2 µM
HeLa [8]
  IC50: 3.8 µM
AGS
  IC50: 12.8 µM

## CCOP(=O)(OCC)C(NC(=O)[C@]12CC[C@@H](C)[C@H](C)[C@H]1C1=CC[C@@H]3[C@@]4(C)C[C@@H](OC(C)=O)[C@H](OC(C)=O)[C@@](C)(COC(C)=O)[C@@H]4CC[C@@]3(C)[C@]1(C)CC2)c1cccc2ccccc12 (some centres undefined)
T-24
  IC50: 43.8 µM
HUVEC
  IC50: > 100 µM
[1]
  IC50: 46.1 µM
A549 [2]
  IC50: 54.8 µM

## O=c1[nH]cc(F)c(=O)[nH]1 [FLUOROURACIL]
T-24
  IC50: 40.1 µM
HUVEC
  IC50: 56 µM
[1]
  IC50: 44.3 µM
A549 [2]
  IC50: 34.5 µM

## CC(=O)O[C@H]1CC[C@]2(C)[C@H]3CC=C4[C@@H]5[C@@H](C)[C@H](C)CC[C@]5(C(=O)NCCCCN)CC[C@@]4(C)[C@]3(C)CC[C@H]2C1(C)C
[7]
  IC50: 25.1 µM
HepG2 [6]
  IC50: 16 µM
HeLa [8]
  IC50: 4.2 µM
AGS
  IC50: 14.1 µM

## CC(=O)O[C@H]1CC[C@]2(C)[C@H]3CC=C4[C@@H]5[C@@H](C)[C@H](C)CC[C@]5(C(=O)NCCN)CC[C@@]4(C)[C@]3(C)CC[C@H]2C1(C)C
[7]
  IC50: 18.1 µM
HepG2 [6]
  IC50: 16.3 µM
HeLa [8]
  IC50: 4.4 µM
AGS
  IC50: 14.5 µM

## COC(=O)C1CCCN1C(=O)[C@]12CC[C@@H](C)[C@H](C)[C@H]1C1=CC[C@@H]3[C@@]4(C)C[C@@H](O)[C@H](O)[C@@](C)(CO)[C@@H]4CC[C@@]3(C)[C@]1(C)CC2 (some centres undefined)
HeLa [9]
  IC50: 21.3 µM

## COC(=O)[C@]1(C)CC[C@]2(C)CC[C@]3(C)C4=CC(c5c[nH]c6cc(C)ccc56)c5c(cc(OC)c(OC)c5C)C4(C)CC[C@@]3(C)[C@H]2C1 (single isomer, unassigned)
H4
  IC50: 7.88 µM
Bel-7402
  IC50: 0.02 µM

## COc1ccc(/C=N/NC(=O)COC(=O)[C@]23CC[C@@H](C)[C@@](C)(O)[C@H]2C2=CC(=O)[C@@H]4[C@@]5(C)CC[C@H](O)[C@](C)(CO)[C@@H]5CC[C@@]4(C)[C@]2(C)CC3)cc1
HeLa [4]
  IC50: 8.54 µM
SGC-7901
  IC50: 11.3 µM
HepG2 [5]
  IC50: 4.16 µM

## C[C@H]1[C@H](C)CC[C@]2(C(=O)n3ccnc3)CC[C@]3(C)C(=CC[C@@H]4[C@@]5(C)C=C(C#N)C(=O)C(C)(C)[C@@H]5CC[C@]43C)[C@H]12
RAW264.7
  IC50: 5 µM

## C[C@H]1[C@H](C)CC[C@]2(C(=O)NCCCCCCN)CC[C@]3(C)C(=CC[C@@H]4[C@@]5(C)CC[C@H](O)C(C)(C)[C@@H]5CC[C@]43C)[C@H]12
[7]
  IC50: 12.4 µM
HepG2 [6]
  IC50: 13.4 µM
HeLa [8]
  IC50: 13.3 µM
AGS
  IC50: 16.6 µM

## C[C@H]1[C@H](C)CC[C@@]23CC[C@@]4(C)[C@]5(C)CC[C@H]6C(C)(C)C(=O)C(C#N)=C[C@]6(C)C5=CC(=O)[C@]4(OC2=O)[C@H]13
RAW264.7
  IC50: 8 µM

## C[C@H]1[C@H](C)CC[C@]2(C(=O)NCCCCN)CC[C@]3(C)C(=CC[C@@H]4[C@@]5(C)CC[C@H](O)C(C)(C)[C@@H]5CC[C@]43C)[C@H]12
[7]
  IC50: 15 µM
HepG2 [6]
  IC50: 14.4 µM
HeLa [8]
  IC50: 14.5 µM
AGS
  IC50: 17.5 µM

Source: ChEMBL document CHEMBL4270495, “Oleanane-, ursane-, and quinone methide friedelane-type triterpenoid derivatives: Recent advances in cancer treatment” (Eur J Med Chem, 2017)
